Measurements reported in US7589087B2 (Janssen Pharmaceutica, N.V., priority 2006, dated 2009).
Structures can show the parent of a compound that is named as a salt.

molecular target: T1, human histamine H4 receptor (Homo sapiens, UniProt Q9H3N8); assay: Binding Assay on Recombinant Human Histamine H4 Receptor (3H-histamine competition, membranes of transfected SK-N-MC or COS7 cells); further: ligand 5 nM
T1 construct: expressed in transfected cells; host or cells: SK-N-MC cells or COS7 cells, transiently transfected; membranes prepared
Protocol: SK-N-MC cells or COS7 cells were transiently transfected with pH4R and grown in 150 cm^2 tissue culture dishes. Cells were washed with saline solution, scraped with a cell scraper and collected by centrifugation (1000 rpm, 5 min). Cell membranes were prepared by homogenization of the cell pellet in 20 mM Tris-HCl with a polytron tissue homogenizer for 10 sec at high speed. Homogenate was centrifuged at 1000 rpm for 5 min at 4° C. The supernatant was then collected and centrifuged at 20,000×g for 25 min at 4° C. The final pellet was resuspended in 50 mM Tris-HCl. […] Incubation occurred at room temperature for 45 min. Membranes were harvested by rapid filtration over Whatman GF/C filters and washed 4 times with ice-cold 50 mM Tris HCl. Filters were then dried, mixed with scintillant and counted for radioactivity.

T1 sequence (Q9H3N8 whole entry): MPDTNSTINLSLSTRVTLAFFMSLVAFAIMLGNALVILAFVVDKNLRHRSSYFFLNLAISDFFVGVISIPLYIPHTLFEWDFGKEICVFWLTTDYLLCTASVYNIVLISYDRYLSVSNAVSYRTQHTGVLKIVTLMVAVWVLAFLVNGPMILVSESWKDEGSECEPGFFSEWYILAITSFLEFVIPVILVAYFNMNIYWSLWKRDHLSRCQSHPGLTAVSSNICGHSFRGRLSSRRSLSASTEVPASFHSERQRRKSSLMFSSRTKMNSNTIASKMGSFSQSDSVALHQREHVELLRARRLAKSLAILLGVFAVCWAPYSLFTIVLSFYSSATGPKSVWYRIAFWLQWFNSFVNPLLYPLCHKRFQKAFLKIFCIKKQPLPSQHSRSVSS

Point of comparison: `Cc1c(F)ccc2[nH]c(-c3ccc(N(C)CCCC4CCN(C)CC4)nc3)nc12` [Example 2, [5-(5-Fluoro-4-methyl-1H-benzoimidazol-2-yl)-pyridin-2-yl]-methyl-[3-(1-methyl-piperidin-4-yl)-propyl]-amine], Ki 15 nM. Against it:
- Cc1cc(C)c2nc(-c3ccc(N(C)CCCC4CCN(C)CC4)nc3)[nH]c2c1 [Example 1, [5-(4,6-Dimethyl-1H-benzoimidazol-2-yl)-pyridin-2-yl]-methyl-[3-(1-methyl-piperidin-4-yl)-propyl]-amine] — within 1.5-fold, 12 nM
- CN1CCC(CCCNc2ccc(-c3nc4cc(Cl)ccc4[nH]3)cn2)CC1 [Example 3, [5-(5-Chloro-1H-benzoimidazol-2-yl)-pyridin-2-yl]-[3-(1-methyl-piperidin-4-yl)-propyl]-amine] — 2.5-fold lower, 6 nM
- CN1CCC(CCCNc2ccc(-c3nc4cc(C(C)(C)C)ccc4[nH]3)cn2)CC1 [Example 4, [5-(5-tert-Butyl-1H-benzoimidazol-2-yl)-pyridin-2-yl]-[3-(1-methyl-piperidin-4-yl)-propyl]-amine] — 1.7-fold lower, 9 nM
- Cc1c(F)ccc2[nH]c(-c3ccc(NCCCC4CCN(C)CC4)nc3)nc12 [Example 5, [5-(5-Fluoro-4-methyl-1H-benzoimidazol-2-yl)-pyridin-2-yl]-[3-(1-methyl-piperidin-4-yl)-propyl]-amine] — 2.2-fold higher, 33 nM
- Cc1cc(Cl)cc2[nH]c(-c3ccc(NCCCC4CCN(C)CC4)nc3)nc12 [Example 6, [5-(6-Chloro-4-methyl-1H-benzoimidazol-2-yl)-pyridin-2-yl]-[3-(1-methyl-piperidin-4-yl)-propyl]-amine] — within 1.5-fold, 16 nM
- COc1ccc2[nH]c(-c3ccc(NCCCC4CCN(C)CC4)nc3)nc2c1 [Example 7, [5-(5-Methoxy-1H-benzoimidazol-2-yl)-pyridin-2-yl]-[3-(1-methyl-piperidin-4-yl)-propyl]-amine] — 33-fold higher, 500 nM
- COC(=O)c1ccc2[nH]c(-c3ccc(NCCCC4CCN(C)CC4)nc3)nc2c1 [Example 8, 2-{6-[3-(1-Methyl-piperidin-4-yl)-propylamino]-pyridin-3-yl}-1H-benzoimidazole-5-carboxylic acid methyl ester] — 110-fold higher, 1590 nM
- Cc1cc(Cl)cc2[nH]c(-c3ccc(NCCCN4CCN(C)CC4)nc3)nc12 [Example 9, [5-(6-Chloro-4-methyl-1H-benzoimidazol-2-yl)-pyridin-2-yl]-[3-(4-methyl-piperazin-1-yl)-propyl]-amine] — 23-fold higher, 350 nM
- Cc1c(F)ccc2[nH]c(-c3ccc(NCCCN4CCN(C)CC4)nc3)nc12 [Example 10, [5-(5-Fluoro-4-methyl-1H-benzoimidazol-2-yl)-pyridin-2-yl]-[3-(4-methyl-piperazin-1-yl)-propyl]-amine] — 62-fold higher, 930 nM
- Cc1cc(-c2nc3c(C)c(F)ccc3[nH]2)cnc1NCCCC1CCN(C)CC1 [Example 11, [5-(5-Fluoro-4-methyl-1H-benzoimidazol-2-yl)-3-methyl-pyridin-2-yl]-[3-(1-methyl-piperidin-4-yl)-propyl]-amine] — within 1.5-fold, 22 nM
- Cc1cc(-c2nc3c(F)c(F)ccc3[nH]2)cnc1NCCCC1CCN(C)CC1 [Example 12, [5-(4,5-Difluoro-1H-benzoimidazol-2-yl)-3-methyl-pyridin-2-yl]-[3-(1-methyl-piperidin-4-yl)-propyl]-amine] — 5.2-fold higher, 78 nM
- Cc1c(F)ccc2[nH]c(-c3ccc(N(CCCC4CCN(C)CC4)C(C)C)nc3)nc12 [Example 13, [5-(5-Fluoro-4-methyl-1H-benzoimidazol-2-yl)-pyridin-2-yl]-isopropyl-[3-(1-methyl-piperidin-4-yl)-propyl]-amine] — 49-fold higher, 730 nM
- Cc1cc(C)c2nc(-c3ccnc(N(C)CCCCC4CCN(C)CC4)c3)[nH]c2c1 [Example 14, [4-(4,6-Dimethyl-1H-benzoimidazol-2-yl)-pyridin-2-yl]-methyl-[4-(1-methyl-piperidin-4-yl)-butyl]-amine hydrochloride salt] — 2.7-fold higher, 40 nM
- Cc1cccc2[nH]c(-c3ccnc(NCCCCC4CCN(C)CC4)c3)nc12 [Example 15, [4-(4-Methyl-1H-benzoimidazol-2-yl)-pyridin-2-yl]-[4-(1-methyl-piperidin-4-yl)-butyl]-amine] — 15-fold lower, 1 nM
- Cc1c(F)ccc2[nH]c(-c3ccnc(NCCCCC4CCN(C)CC4)c3)nc12 [Example 16, [4-(5-Fluoro-4-methyl-1H-benzoimidzol-2-yl)-pyridin-2-yl]-[4-(1-methyl-piperidin-4-yl)-butyl]-amine] — 7.5-fold lower, 2 nM
- Cc1cc(Cl)cc2[nH]c(-c3ccnc(NCCCCC4CCN(C)CC4)c3)nc12 [Example 17, [4-(6-Chloro-4-methyl-1H-benzoimidazol-2-yl)-pyridin-2-yl]-[4-(1-methyl-piperidin-4-yl)-butyl]-amine] — 1.9-fold lower, 8 nM
- Cc1cc(C)c2nc(-c3ccnc(NCCCCC4CCN(C)CC4)c3)[nH]c2c1 [Example 18, [4-(4,6-Dimethyl-1H-benzoimidazol-2-yl)-pyridin-2-yl]-[4-(1-methyl-piperidin-4-yl)-butyl]-amine] — 7.5-fold lower, 2 nM
- Cc1c(F)ccc2[nH]c(-c3ccnc(NCCCCN4CCCN(C)CC4)c3)nc12 [Example 19, [4-(5-Fluoro-4-methyl-1H-benzoimidazol-2-yl)-pyridin-2-yl]-[4-(4-methyl-[1,4]diazepan-1-yl)-butyl]-amine] — 3-fold lower, 5 nM
- Cc1c(F)ccc2[nH]c(-c3ccnc(NC(=O)CCCC4CCN(C)CC4)c3)nc12 [Example 20, N-[4-(5-Fluoro-4-methyl-1H-benzoimidazol-2-yl)-pyridin-2-yl]-4-(1-methyl-piperidin-4-yl)-butyramide] — 17-fold higher, 250 nM
- Cc1cc(C)c2nc(-c3ccnc(NC(=O)CCCC4CCN(C)CC4)c3)[nH]c2c1 [Example 21, N-[4-(4,6-Dimethyl-1H-benzoimidazol-2-yl)-pyridin-2-yl]-4-(1-methyl-piperidin-4-yl)-butyramide] — 19-fold higher, 290 nM
- COC(=O)c1ccc2[nH]c(-c3ccc(N(C)CCCC4CCN(C)CC4)nc3)nc2c1 [Example 22, 2-(6-{Methyl-[3-(1-methyl-piperidin-4-yl)-propyl]-amino}-pyridin-3-yl)-1H-benzoimidazole-5-carboxylic acid methyl ester] — 28-fold higher, 420 nM
- Cc1cccc2[nH]c(-c3ccc(NCCCC4CCN(C)CC4)nc3)nc12 [Example 23, [5-(4-Methyl-1H-benzoimidazol-2-yl)-pyridin-2-yl]-[3-(1-methyl-piperidin-4-yl)-propyl]-amine] — 16-fold higher, 240 nM
- Cc1cc(C)c2nc(-c3ccc(NCCCC4CCN(C)CC4)nc3)[nH]c2c1 [Example 24, [5-(4,6-Dimethyl-1H-benzoimidazol-2-yl)-pyridin-2-yl]-[3-(1-methyl-piperidin-4-yl)-propyl]-amine] — 1.5-fold higher, 23 nM
- Cc1ccc2[nH]c(-c3ccc(NCCCC4CCN(C)CC4)nc3)nc2c1C [Example 25, [5-(4,5-Dimethyl-1H-benzoimidazol-2-yl)-pyridin-2-yl]-[3-(1-methyl-piperidin-4-yl)-propyl]-amine] — 3.9-fold higher, 58 nM
- CN1CCC(CCCNc2ccc(-c3nc4cc(Cl)c(F)cc4[nH]3)cn2)CC1 [Example 26, [5-(5-Chloro-6-fluoro-1H-benzoimidazol-2-yl)-pyridin-2-yl]-[3-(1-methyl-piperidin-4-yl)-propyl]-amine] — within 1.5-fold, 13 nM
- Cc1ccc2[nH]c(-c3ccc(N(C)CCCC4CCN(C)CC4)nc3)nc2c1C [Example 27, [5-(4,5-Dimethyl-1H-benzoimidazol-2-yl)-pyridin-2-yl]-methyl-[3-(1-methyl-piperidin-4-yl)-propyl]-amine] — 4.8-fold higher, 72 nM
